The values below come from PMC5507300, “Antibacterial small molecules targeting the conserved TOPRIM domain of DNA gyrase” (PLoS ONE, 2017).

≈ marks a conversion by molar mass, not a printed value.

The test system of one experiment is E. coli BW25113 ΔtolC. Briefly: Broth microdilution MIC, E. coli BW25113 ΔtolC. The conditions noted are these: Escherichia coli. The class given is cell-based. An excerpt:
E. coli HS151 (ΔtolC) has been described previously. Gyrase inhibitor-resistant isolates (GYR101-108) were derived by selection for spontaneous resistance to MRL-770 or MRL-423 (Fig 1) in E. coli HS151 as described below. E. coli BW25113 and the Keio gene deletion collection based on BW25113 [25] were obtained from Thermo Fisher Scientific (Waltham, MA) and described in [26]. The plasmid-borne FQ resistance determinant, qnrVC3 [27], was kindly provided by D. Hooper (Massachusetts General Hospital). MB9796 (A. baumannii) is a derivative of MB9797 (ATCC19606) lacking lipopolysaccharide. The efflux-defective P. aeruginosa strain MB5890 (CB398) is a derivative of MB5919 (PAO1). MB2884 (E. coli) and CL15245 (K. pneumoniae) are clinical isolates from the Merck & Co., Inc., Kenilworth, NJ, USA, strain collection. S. aureus COL is a methicillin-resistant clinical isolate.
Compound doubling dilutions were prepared in 100% DMSO (Sigma Aldrich) and 2 μL of each dilution was transferred to a 96-well plate with lid (Thermo Scientific). Inoculum for all MIC testing was prepared using the BBL Prompt Inoculation System (Becton Dickinson, Franklin Lakes, NJ USA) as described by the manufacturer to produce a suspension of cells at approximately 1.5 x 10^8 colony forming units (CFU)/mL [34–36] and a further dilution (1:1000) was made into cation adjusted Mueller-Hinton broth (CAMH broth, Becton-Dickinson). One hundred μL of this inoculum were then transferred to each well of the 96-well plate containing diluted compound (above). Plates were covered and incubated overnight (18 hrs.) at 37°C.
The yacG deletion allele from the Keio collection was amplified by PCR (primers: […] and […]) and moved to BW25113 ΔtolC as described below. The E. coli strain BW25113 ΔtolC containing pKD46 [25] was used to inoculate SOB (Invitrogen)/0.2% w/v arabinose (Sigma Aldrich)/ampicillin (100 μg/mL) and grown overnight at 30°C. The overnight culture was then diluted 1/40 into 20 mL fresh SOB/0.2% w/v arabinose/ampicillin (100 μg/mL) and grown at 30°C while shaking for ~3 hrs until OD600 = 0.5. […]

The target of another experiment is T1, E. coli DNA gyrase (Escherichia coli, UniProt P0AES6).
T1 construct: purchased New England Biolabs, Beverly, MA
Briefly: Cleavage complex stabilization gel assay. In kind it is biochemical. Particulars: supercoiled pUC19. The method, then:
Cleavage complex stabilization was detected by assembling a gyrase reaction, as above, containing 0.4μL compound (in 100% DMSO), 12.5 μL H2O, 4 μL 5X buffer, 0.4 μL supercoiled pUC19 DNA substrate (0.4 μg), 3 μL gyrase (15 U). The reaction was incubated at 25°C for 60 min. after which 3 μL 2% SDS and 3 μL 1 mg/mL proteinase K were added. […] DNA in the gel was illuminated with UV light and photographed as above.

In general, MIC refers to the lowest concentration that inhibits growth of the organism. A high value points to a need for much substance. `Cn1ncc2cc(-c3cnnn3C3CCN(C(=O)Nc4cc(Cl)cc(Cl)c4)CC3)ccc21` [MRL-423] gave an MIC in the experiment on E. coli BW25113 ΔtolC of 0.25 µg/mL (≈ 0.532 µM). Moreover, the cleavage complex stabilization entry at E. coli DNA gyrase was “stabilizes cleavage complex formation in a dose-dependent fashion”.
